Test results from PubChem BioAssay AID2060504 (Molecular Pharmacology Branch, DTP, NCI, 2025).

System: 636577-100-R-J1-PDC complex spheroid viability
Test: Anticancer human tumor 636577-100-R-J1-PDC patient-derived endometrial adenocarcinoma cell line growth inhibition [GQUAD]
Conditions: for IC50: curve of first compound; for viability, T/C: stronger effect = lower value; active = viability on the fitted dose curve at most 10% of control; inactive = the rest
Summary of the method: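 Viability of tumor cells grown as complex spheroids with endothelial and stromal cells, exposed to drug combinations. Top concentration at or near clinical Cmax (else 10 microM), diluted in half-log increments.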

[1] = second compound 0.0316 µM, first compound 0.0316 µM
[2] = second compound 0.0316 µM, first compound 0.316 µM
[3] = second compound 0.1 µM, first compound 0.0316 µM
[4] = second compound 0.1 µM, first compound 0.316 µM
[5] = second compound 0.316 µM, first compound 0.0316 µM
[6] = second compound 0.316 µM, first compound 0.316 µM
[7] = second compound 1 µM, first compound 0.0316 µM
[8] = second compound 1 µM, first compound 0.316 µM
[9] = second compound 3.16 µM, first compound 0.0316 µM
[10] = second compound 3.16 µM, first compound 0.316 µM
[11] = second compound 10 µM, first compound 0.0316 µM
[12] = second compound 10 µM, first compound 0.316 µM
[13] = second compound 0.0316 µM, first compound 0.1 µM
[14] = second compound 0.0316 µM, first compound 1 µM
[15] = second compound 0.0316 µM, first compound 3.16 µM
[16] = second compound 0.0316 µM, first compound 10 µM
[17] = second compound 0.1 µM, first compound 0.1 µM
[18] = second compound 0.1 µM, first compound 1 µM
[19] = second compound 0.1 µM, first compound 3.16 µM
[20] = second compound 0.1 µM, first compound 10 µM
[21] = second compound 0.316 µM, first compound 0.1 µM
[22] = second compound 0.316 µM, first compound 1 µM
[23] = second compound 0.316 µM, first compound 3.16 µM
[24] = second compound 0.316 µM, first compound 10 µM
[25] = second compound 1 µM, first compound 0.1 µM
[26] = second compound 1 µM, first compound 1 µM
[27] = second compound 1 µM, first compound 3.16 µM
[28] = second compound 1 µM, first compound 10 µM
[29] = second compound 3.16 µM, first compound 0.1 µM
[30] = second compound 3.16 µM, first compound 1 µM
[31] = second compound 3.16 µM, first compound 3.16 µM
[32] = second compound 3.16 µM, first compound 10 µM
[33] = second compound 10 µM, first compound 0.1 µM
[34] = second compound 10 µM, first compound 1 µM
[35] = second compound 10 µM, first compound 3.16 µM
[36] = second compound 10 µM, first compound 10 µM
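Also: viability read after seven days of drug exposure.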
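For viability, T/C in this document: luminescence signal used as a proxy for viable cells; 100% = DMSO vehicle control wells.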

Cc1[nH]c2ccccc2c1CCNCc1ccc(/C=C/C(=O)NO)cc1 + CN(C)c1ccc(Nc2c3ccc(NC(=O)CCN4CCCC4)cc3nc3cc(NC(=O)CCN4CCCC4)ccc23)cc1
0.00462 µM: IC50 (second compound 0.1 µM)
0.00315 µM: IC50 (second compound 1 µM)
0.00484 µM: IC50 (second compound 0.316 µM)
< 0.000999 µM: IC50 (second compound 3.16 µM) | IC50 (second compound 10 µM)
inactive: viability, T/C (second compound 0.0316 µM, first compound 0.000999 µM) 84% | viability, T/C (second compound 0.0316 µM, first compound 0.00316 µM) 49.5% | viability, T/C (second compound 0.0316 µM, first compound 0.00999 µM) 40.6% | viability, T/C [1] 15.7% | viability, T/C (second compound 0.0316 µM, first compound 0.0999 µM) 8.74% | viability, T/C (second compound 0.1 µM, first compound 0.000999 µM) 80.7% | viability, T/C (second compound 0.1 µM, first compound 0.00316 µM) 56.5% | viability, T/C (second compound 0.1 µM, first compound 0.00999 µM) 36.1% | viability, T/C [3] 14.2% | viability, T/C (second compound 0.316 µM, first compound 0.000999 µM) 62.3% | viability, T/C (second compound 0.316 µM, first compound 0.00316 µM) 62.5% | viability, T/C (second compound 0.316 µM, first compound 0.00999 µM) 30.4% | viability, T/C [5] 14% | viability, T/C (second compound 0.316 µM, first compound 0.0999 µM) 8.97% | viability, T/C [6] 9.2% | viability, T/C (second compound 1 µM, first compound 0.000999 µM) 65.4% | viability, T/C (second compound 1 µM, first compound 0.00316 µM) 48.6% | viability, T/C (second compound 1 µM, first compound 0.00999 µM) 31.5% | viability, T/C [7] 13.9% | viability, T/C (second compound 1 µM, first compound 0.0999 µM) 9.95% | viability, T/C (second compound 3.16 µM, first compound 0.000999 µM) 37.1% | viability, T/C (second compound 3.16 µM, first compound 0.00316 µM) 29.2% | viability, T/C (second compound 3.16 µM, first compound 0.00999 µM) 20.2% | viability, T/C [9] 15.6% | viability, T/C (second compound 3.16 µM, first compound 0.0999 µM) 10.3% | viability, T/C [10] 10.9%
0.00384 µM: IC50 (second compound 0.0316 µM)
active: viability, T/C [2] 12.3% | viability, T/C (second compound 0.1 µM, first compound 0.0999 µM) 8.43% | viability, T/C [4] 8.87% | viability, T/C [8] 10.1% | viability, T/C (second compound 10 µM, first compound 0.000999 µM) 6.06% | viability, T/C (second compound 10 µM, first compound 0.00316 µM) 7.54% | viability, T/C (second compound 10 µM, first compound 0.00999 µM) 7.16% | viability, T/C [11] 6.21% | viability, T/C (second compound 10 µM, first compound 0.0999 µM) 6.38% | viability, T/C [12] 3.97%

Nc1ccn(C2OC(CO)C(O)C2(F)F)c(=O)n1 (stereo unspecified) + CN(C)c1ccc(Nc2c3ccc(NC(=O)CCN4CCCC4)cc3nc3cc(NC(=O)CCN4CCCC4)ccc23)cc1
inactive: viability, T/C [1] 17.7% | viability, T/C [13] 13.4% | viability, T/C [2] 14.6% | viability, T/C [14] 17.2% | viability, T/C [15] 16.4% | viability, T/C [16] 15.8% | viability, T/C [3] 17.7% | viability, T/C [17] 14.2% | viability, T/C [4] 14.9% | viability, T/C [18] 14.3% | viability, T/C [19] 14.5% | viability, T/C [20] 18.5% | viability, T/C [5] 16.9% | viability, T/C [21] 11.2% | viability, T/C [6] 14.2% | viability, T/C [22] 17.4% | viability, T/C [23] 16.4% | viability, T/C [24] 15.6% | viability, T/C [7] 15.9% | viability, T/C [25] 16.7% | viability, T/C [8] 15.2% | viability, T/C [26] 17.8% | viability, T/C [27] 16.5% | viability, T/C [28] 17.1% | viability, T/C [9] 16.6% | viability, T/C [29] 13.9% | viability, T/C [10] 15.2% | viability, T/C [30] 14.8% | viability, T/C [31] 16.3% | viability, T/C [32] 14.5%
active: viability, T/C [11] 3.38% | viability, T/C [33] 3.05% | viability, T/C [12] 4% | viability, T/C [34] 3.42% | viability, T/C [35] 3.65% | viability, T/C [36] 3.14%
< 0.0316 µM: IC50 (second compound 0.0316 µM) | IC50 (second compound 0.1 µM) | IC50 (second compound 0.316 µM) | IC50 (second compound 1 µM) | IC50 (second compound 3.16 µM) | IC50 (second compound 10 µM)

O=C(NO)c1cnc(N2CCN(S(=O)(=O)c3ccc4ccccc4c3)CC2)nc1 + CN(C)c1ccc(Nc2c3ccc(NC(=O)CCN4CCCC4)cc3nc3cc(NC(=O)CCN4CCCC4)ccc23)cc1
inactive: viability, T/C [1] 30.3% | viability, T/C [13] 14.9% | viability, T/C [3] 34.5% | viability, T/C [17] 15.9% | viability, T/C [5] 30.4% | viability, T/C [21] 18.8% | viability, T/C [7] 26.3% | viability, T/C [25] 15.7% | viability, T/C [9] 25.1% | viability, T/C [29] 15.6%
< 0.0316 µM: IC50 (second compound 0.0316 µM) | IC50 (second compound 0.1 µM) | IC50 (second compound 0.316 µM) | IC50 (second compound 1 µM) | IC50 (second compound 3.16 µM) | IC50 (second compound 10 µM)
active: viability, T/C [2] 6.37% | viability, T/C [14] 6.45% | viability, T/C [15] 0.17% | viability, T/C [16] 0.08% | viability, T/C [4] 6.15% | viability, T/C [18] 6.73% | viability, T/C [19] 0.15% | viability, T/C [20] 0.08% | viability, T/C [6] 6.26% | viability, T/C [22] 5.85% | viability, T/C [23] 0.15% | viability, T/C [24] 0.1% | viability, T/C [8] 7.08% | viability, T/C [26] 7.15% | viability, T/C [27] 0.24% | viability, T/C [28] 0.08% | viability, T/C [10] 8.28% | viability, T/C [30] 6.85% | viability, T/C [31] 0.21% | viability, T/C [32] 0.08% | viability, T/C [11] 7.11% | viability, T/C [33] 4.48% | viability, T/C [12] 5.08% | viability, T/C [34] 6.28% | viability, T/C [35] 0.12% | viability, T/C [36] 0.08%
